This test addresses T1, α5-GABAA receptor (Homo sapiens, UniProt P18507+P31644).
T1 construct: expressed in transfected cells; host or cells: HEK293, monoclonal stably transfected line
In words: Cell-level screening: whole cell patch clamp, inverse agonist efficacy on α5-GABAA receptor expressed in HEK293. The test is classed as cell-based. Particulars: drug 100 nM, GABA 0.05 μM, HEK293 expressing α5, β3 and γ2 subunits, clamped at −60 mV; read-out: Compound inverse agonist efficacy %. The method, then: The inventors used electrophysiological methods to determine the inverse agonist efficacy of the drugs to be tested on the α5-GABAA receptor. The detailed methods are as follows:
Different subunits of GABAA receptors were expressed in human […] cell line 293 (HEK293) cell line. The cells were cultured in a culture medium and used as a cell model for screening pain inhibiting drugs. The α, β and γ subunits are necessary to form complete functional GABAA receptors. In this embodiment, the inventors had established the following cell model: α5 subunit (see GenBank Accession No. NM_000810.3 for protein sequences), β3 subunit (see GenBank Accession No. NM_000814.5 for protein sequences) and γ2 subunit (see GenBank Accession No. NM_000816.3 for protein sequences) were expressed in HEK293 cell line at the same time, followed by screening the monoclonal cell line. This cell line contained α5-GABAA receptor and had complete GABAA receptor function.
The monoclonal stably transfected HEK-293 cells expressing α5-GABAA receptor were cultured in 10 cm culture dishes and passaged when the cells grew to 80%-90%. During passaging, the culture medium was aspirated first, then 3 mL of DPBS phosphate buffer salt (Gibco™) was added to the culture dishes, and the culture dishes were shaken slightly, and DPBS was aspirated. 1 mL of trypsin (TrypLE Express, Gibco™) was added thereto, and the cells were digested at 37° C. for 1-2 minutes. Then 3 mL of complete medium (DMEM+10% FBS (Gibco™)) was added and the cells at the bottom of the culture dishes were dispersed. The cell suspension were transferred to a 15 mL centrifugal tube (Corning) and then centrifuged at 200 g for 3 minutes. The supernatant was discarded, 4 mL of complete medium was added, and the cells were gently blown and resuspended for use. If cell passaging was performed, the cell suspension was diluted at a ratio of 1:5 or 1:10. If cells for electrophysiology use were prepared, the cell suspension was diluted in a ratio of 1:12, then added into a 24-well dish (Corning™) in which glass slides were placed and pretreated with Poly-D-Lysine, and the cells were tested after being attached to the walls. The culture time of cells for electrophysiology use was no more than 48 hours.
Drug concentration setting: the final drug concentration used in drug screening was 100 nM, and the GABA concentration range was 0.05 μM. The final drug concentrations used in the dose-inversal agonistic efficiency (%) test were 0.3 nM, 3 nM, 10 nM, 30 nM, 100 nM and 300 nM. The whole cell patch clamp technique was used in electrophysiological experiments, which could refer to the literature (I. Lecker, Y. Yin, D. S. Wang and B. A. Orser, (2013) Potentiation of GABAA receptor activity by volatile anaesthetics is reduced by α5-GABAA receptor-preferring inverse agonists, British Journal of Anaesthesia 110 (S1): i73-i81). The components of extracellular solution (ECS) for electrophysiology use were as follows: 150 mM NaCl, 5 mM KCl, 2.5 mM CaCl2), 1 mM MgCl2, 10 mM HEPES and 10 mM glucose (pH 7.4); electrode internal solutions for electrophysiology use were as follows: 140 mM CsCl, 11 mM EGTA, 10 mM HEPES, 2 mM CaCl2), 1 mM MgCl2, 4 mM MgATP, 2 mM TEA (pH 7.3). The signal acquisition used an EPC-10 amplifier and the PatchMaster software (HEKA). The recording electrode was drawn using borosilicate glass, and the electrode resistance was 4 to 6 MΩ. The ALA-VC3-8PP™ system was used for extracellular administration. Separate cells that grew independently was selected for recording. During recording, the cell membrane potential was clamped at −60 mV. During experiment, an extracellular solution was applied to the cells for about 20 seconds. When the baseline reached to a stable state, the extracellular solution was switched to GABA. Then the current induced by GABA could be detected. […]

T1 sequence (P31644 32-462): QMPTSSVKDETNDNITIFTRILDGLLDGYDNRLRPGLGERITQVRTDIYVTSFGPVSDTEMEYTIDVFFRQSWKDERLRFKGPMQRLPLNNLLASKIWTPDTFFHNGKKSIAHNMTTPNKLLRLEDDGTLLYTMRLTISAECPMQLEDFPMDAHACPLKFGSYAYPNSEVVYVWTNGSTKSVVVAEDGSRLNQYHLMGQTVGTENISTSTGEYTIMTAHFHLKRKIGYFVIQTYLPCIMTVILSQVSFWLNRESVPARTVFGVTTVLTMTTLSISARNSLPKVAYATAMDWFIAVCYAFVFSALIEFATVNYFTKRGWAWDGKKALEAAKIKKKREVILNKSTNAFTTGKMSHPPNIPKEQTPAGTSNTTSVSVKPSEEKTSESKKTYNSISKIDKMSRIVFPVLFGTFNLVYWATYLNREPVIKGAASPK
T1 sequence (P28472 26-473 partner): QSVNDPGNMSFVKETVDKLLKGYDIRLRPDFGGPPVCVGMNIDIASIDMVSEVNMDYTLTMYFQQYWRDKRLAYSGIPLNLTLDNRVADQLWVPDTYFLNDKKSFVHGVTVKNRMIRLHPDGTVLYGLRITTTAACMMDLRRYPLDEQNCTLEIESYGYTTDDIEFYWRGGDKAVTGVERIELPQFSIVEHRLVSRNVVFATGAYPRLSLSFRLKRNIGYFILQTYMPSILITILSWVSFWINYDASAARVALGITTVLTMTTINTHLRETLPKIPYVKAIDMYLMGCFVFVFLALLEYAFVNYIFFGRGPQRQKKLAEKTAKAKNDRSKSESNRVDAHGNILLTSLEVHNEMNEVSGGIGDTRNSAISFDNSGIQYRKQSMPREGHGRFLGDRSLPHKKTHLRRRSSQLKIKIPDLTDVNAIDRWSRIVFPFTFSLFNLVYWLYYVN
T1 sequence (P18507 40-467 isoform P18507-1 limits assumed): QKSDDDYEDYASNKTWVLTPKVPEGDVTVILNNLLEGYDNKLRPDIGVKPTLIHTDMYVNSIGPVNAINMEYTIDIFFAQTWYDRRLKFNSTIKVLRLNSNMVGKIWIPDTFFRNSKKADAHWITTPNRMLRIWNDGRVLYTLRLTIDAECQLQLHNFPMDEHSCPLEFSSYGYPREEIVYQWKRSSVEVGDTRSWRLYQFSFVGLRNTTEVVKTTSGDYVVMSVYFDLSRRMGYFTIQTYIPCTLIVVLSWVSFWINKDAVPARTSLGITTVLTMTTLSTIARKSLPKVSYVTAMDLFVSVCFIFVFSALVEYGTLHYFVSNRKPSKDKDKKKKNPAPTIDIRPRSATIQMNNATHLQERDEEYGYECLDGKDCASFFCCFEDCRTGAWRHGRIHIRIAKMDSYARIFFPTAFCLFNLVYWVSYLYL

For `COc1cc2nnc(-c3cc(C)on3)n2nc1OCc1ccc2c(n1)CCN([C@H]1CCOC1)C2` (single isomer, unassigned) [Embodiment 181], the inhibition at 0.1 µM worked out at 59%.

As to `COc1cc2nnc(-c3cc(C)on3)n2nc1OCc1ccc2c(n1)CCN([C@@H]1CCOC1)C2` (single isomer, unassigned) [Embodiment 182], the inhibition at 0.1 µM amounted to 53.8%. With `COc1cc2nnc(-c3cc(C)on3)n2nc1OCc1cccc(N2CCOCC2)n1` [Embodiment 2], the inhibition at 0.1 µM is 26.6%.

On to `COc1cc2nnc(-c3cc(C)on3)n2nc1OCc1cccc(N(C)C)n1` [Embodiment 3], for which the inhibition at 0.1 µM is 37.1%. Regarding `COc1cc2nnc(-c3cc(C)on3)n2nc1OCc1cccc(F)n1` [Embodiment 4], the inhibition at 0.1 µM turned out to be 40.8%. On to `COc1cc2nnc(-c3cc(C)on3)n2nc1OCc1ccccc1C#N` [Embodiment 5], for which the inhibition at 0.1 µM amounted to 31.5%.

For the compound `COc1cc2nnc(-c3cc(C)on3)n2nc1OCc1ccc(OCCCC#N)cn1` [Embodiment 8], the inhibition at 0.1 µM came out at 57.8%. With `COCCOc1ccnc(COc2nn3c(-c4cc(C)on4)nnc3cc2OC)c1` [Embodiment 10] the figure was 37.1%; with `COc1cc2nnc(-c3cc(C)on3)n2nc1OCc1ccc(C(=O)NCC(F)(F)F)cn1` [Embodiment 11, 6-(((7-Methoxy-3-(5-methylisoxazol-3-yl)-[1,2,4]triazolo[4,3-b]pyridazin-6-yl)oxy)methyl)-N-(2,2,2-trifluoroethyl)nicotinamide], 35.4%; with `CCNC(=O)c1ccc(COc2nn3c(-c4cc(C)on4)nnc3cc2OCC)nc1` [Embodiment 12, 6-(((7-Ethoxy-3-(5-methylisoxazol-3-yl)-[1,2,4]triazolo[4,3-b]pyridazin-6-yl)oxy)methyl)-N-ethylnicotinamide], 29.6%. For the compound `COc1cc2nnc(-c3cc(C)on3)n2nc1OCc1ccc(C2=CCCCC2)cn1` [Embodiment 13], the inhibition at 0.1 µM was determined as 29%.

In the case of `Cc1cc(-c2nnc3cc(OCC4CC4)c(OCc4ccccn4)nn23)no1` [Embodiment 14], the inhibition at 0.1 µM came out at 19.4%. The value for `COCCCOc1ccc(COc2nn3c(-c4cc(C)on4)nnc3cc2OC)nn1` [Embodiment 15] was 45.8%; that for `COc1cc2nnc(-c3cc(C)on3)n2nc1OCc1cccc(C)n1` [Embodiment 16] was 31.1%; that for `COc1cc2nnc(-c3cc(C)on3)n2nc1OCc1ncccc1Cl` [Embodiment 17] was 47.7%. `COc1cc2nnc(-c3cc(C)on3)n2nc1OCc1cccc(Cl)n1` [Embodiment 18]: the inhibition at 0.1 µM was 23%. Regarding `COc1cc2nnc(-c3cc(C)on3)n2nc1OCc1ccc(Cl)cn1` [Embodiment 20], the inhibition at 0.1 µM was determined as 42.9%. Take `CCOc1cccc(COc2nn3c(-c4cc(C)on4)nnc3cc2OC)n1` [Embodiment 22]: the inhibition at 0.1 µM was determined as 22.1%. As to `CCOc1ccc(COc2nn3c(-c4cc(C)on4)nnc3cc2OC)nc1` [Embodiment 23], the inhibition at 0.1 µM came to 41.2%.

In the case of `COc1cc2nnc(-c3cc(C)on3)n2nc1OCc1ccc(OC(F)F)cn1` [Embodiment 24], the inhibition at 0.1 µM was found to be 35%. In the case of `COc1cc2nnc(-c3cc(C)on3)n2nc1OCc1ccc(OC(C)C)cn1` [Embodiment 25], the inhibition at 0.1 µM amounted to 34.1%. Consider `COCCOc1ccc(COc2nn3c(-c4cc(C)on4)nnc3cc2OC)nn1` [Embodiment 26], for which the inhibition at 0.1 µM amounted to 41.7%. The value for `COc1cc2nnc(-c3cc(C)on3)n2nc1OCc1ccc(OCCCC#N)nn1` [Embodiment 27] was 42%. In the case of `COc1cc2nnc(-c3cc(C)on3)n2nc1OCc1cc(C#N)ccn1` [Embodiment 29], the inhibition at 0.1 µM came to 66.9%.

Turning to `COc1cc2nnc(-c3cc(C)on3)n2nc1OCc1ncccc1C#N` [Embodiment 30], the inhibition at 0.1 µM came out at 29.4%. The value for `COc1cc2nnc(-c3cc(C)on3)n2nc1OCc1ccc(C2CC2)cn1` [Embodiment 34] was 38%; that for `CCNC(=O)c1ccc(COc2nn3c(-c4cc(C)on4)nnc3cc2OC)nc1` [Embodiment 35] was 39.3%; that for `COc1ccc(COc2nn3c(-c4cc(C)on4)nnc3cc2OC)nc1` [Embodiment 37] was 42.1%.

Turning to `COc1cccc(COc2nn3c(-c4cc(C)on4)nnc3cc2OC)n1` [Embodiment 38], the inhibition at 0.1 µM amounted to 32%. As for `COc1cc2nnc(-c3cc(C)on3)n2nc1OCc1cccc(C#N)n1` [Embodiment 40], the inhibition at 0.1 µM worked out at 39%. With `COc1cc2nnc(-c3cc(C)on3)n2nc1OCc1ccc(C#N)cn1` [Embodiment 41] the figure was 39.4%. Consider `COc1cc2nnc(-c3cc(C)on3)n2nc1OCc1ccc(C)cn1` [Embodiment 42], for which the inhibition at 0.1 µM is 44.9%. Turning to `COc1cnc(COc2nn3c(-c4cc(C)on4)nnc3cc2OC)cn1` [Embodiment 44], the inhibition at 0.1 µM amounted to 44.8%. For `COc1cc2nnc(-c3cc(C)on3)n2nc1OCc1cccc(C(F)(F)F)n1` [Embodiment 45], the inhibition at 0.1 µM was determined as 42.4%.

Consider `COc1cc2nnc(-c3cc(CO)on3)n2nc1OCc1ccccn1` [Embodiment 46, (3-(7-Methoxy-6-(pyridin-2-ylmethoxy)-[1,2,4]triazolo[4,3-b]pyridazin-3-yl]isoxazol-5-yl)methanol], for which the inhibition at 0.1 µM turned out to be 48.7%.

On to `COCc1cc(-c2nnc3cc(OC)c(OCc4ccc(OC)cn4)nn23)no1` [Embodiment 48, 3-(7-Methoxy-6-((5-methoxypyridin-2-yl)methoxy)-[1,2,4]triazolo[4,3-b]pyridazine-3-yl)-5-(methoxymethyl)isoxazole], for which the inhibition at 0.1 µM came out at 34.7%. On to `COc1ccnc(COc2nn3c(-c4cc(C)on4)nnc3cc2OC)c1` [Embodiment 51], for which the inhibition at 0.1 µM worked out at 46.2%. For `COc1cccnc1COc1nn2c(-c3cc(C)on3)nnc2cc1OC` [Embodiment 52], the inhibition at 0.1 µM came out at 38%.

`COc1cc2nnc(-c3cc(C)on3)n2nc1OCc1ccc(S(C)(=O)=O)cn1` [Embodiment 53]: the inhibition at 0.1 µM came to 48.8%.

In the case of `Cc1cc(-c2nnc3cc(OC(F)F)c(OCc4ccccn4)nn23)no1` [Embodiment 54], the inhibition at 0.1 µM came to 43.5%. As for `COc1cc2nnc(-c3cc(C)on3)n2nc1OCc1ccc(C2CCC2)cn1` [Embodiment 56], the inhibition at 0.1 µM amounted to 21.6%. On to `COc1cc2nnc(-c3cc(C)on3)n2nc1OCc1cccc(C2CC2)n1` [Embodiment 57], for which the inhibition at 0.1 µM was found to be 17.6%. With `COc1cc2nnc(-c3cc(C)on3)n2nc1OCc1ccc(F)cn1` [Embodiment 58] the figure was 38.5%; with `COc1cc2nnc(-c3cc(C)on3)n2nc1OCc1ccc(C(F)(F)F)cn1` [Embodiment 59], 35.7%; with `COc1cnc(COc2nn3c(-c4cc(C)on4)nnc3cc2OC)cc1OC` [Embodiment 60], 45.8%.

Turning to `COc1cc2nnc(-c3cc(C)on3)n2nc1OCc1ccc(OC(F)(F)F)cn1` [Embodiment 61], the inhibition at 0.1 µM came out at 45.8%. Regarding `COc1ccc(C(F)(F)F)nc1COc1nn2c(-c3cc(C)on3)nnc2cc1OC` [Embodiment 62], the inhibition at 0.1 µM is 35.7%. Regarding `COc1cc2nnc(-c3cc(C)on3)n2nc1OCc1ccn2nccc2n1` [Embodiment 64], the inhibition at 0.1 µM amounted to 40%.

As to `COc1cc2nnc(-c3cc(C)on3)n2nc1OCc1ccnc2ccnn12` [Embodiment 65], the inhibition at 0.1 µM came out at 55.4%.
